According to PubChem BioAssay AID248 (DTP/NCI, 2004):
Where “and” joins values, the source holds several entries; their conditions need not be identical. Identical values can stand only once. Toxic doses and inconclusive results are not listed. Rule as the data show it: active = T/C of 150% or more; inactive = T/C below 125%.

System: L1210 leukemia ip in BDF1 mice, survival T/C
Test: NCI In Vivo Anticancer Drug Screen. Data for tumor model L1210 Leukemia (intraperitoneal) in B6D2F1 (BDF1) mice
Settings: endpoint: mean survival time, higher = longer survival
How it was run: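 In this screen, tumor-bearing mice given compound are compared to those given vehicle, and their survival values are reported as a treated-to-control quotient.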

[1] = dose: 100.0 mg/kg/injection, schedule: Q01DX001 (ip), vehicle: saline with Tween-80
[2] = dose: 100.0 mg/kg/injection, schedule: Q01DX009 (ip), vehicle: saline with Tween-80
[3] = dose: 200.0 mg/kg/injection, schedule: Q01DX001 (ip), vehicle: saline with Tween-80
[4] = dose: 200.0 mg/kg/injection, schedule: Q01DX009 (ip), vehicle: saline with Tween-80
[5] = dose: 400.0 mg/kg/injection, schedule: Q01DX001 (ip), vehicle: saline with Tween-80
[6] = dose: 400.0 mg/kg/injection, schedule: Q01DX009 (ip), vehicle: saline with Tween-80
[7] = dose: 100.0 mg/kg/injection, schedule: Q01DX009 (ip), vehicle: Klucel (hydroxypropylcellulose) (HPC)
[8] = dose: 200.0 mg/kg/injection, schedule: Q01DX009 (ip), vehicle: Klucel (hydroxypropylcellulose) (HPC)

Measured: T/C

C#CCCCCCC#[C][Hg][C]#CCCCCCC#C.C#CCCCCCC#[C][Hg][C]#CCCCCCC#C
inactive: dose: 75.0 mg/kg/injection, schedule: Q01DX001 (ip), vehicle: saline 90 % of control | dose: 150.0 mg/kg/injection, schedule: Q01DX001 (ip), vehicle: saline 92 % of control | dose: 300.0 mg/kg/injection, schedule: Q01DX001 (ip), vehicle: saline 95 % of control

O=C(Nc1cccc(Cl)c1)c1ccc2ccccc2c1O
inactive: [1] 97 % of control | [2] 106 % of control | dose: 100.0 mg/kg/injection, schedule: Q04DX003 (ip), vehicle: saline with Tween-80 98 % of control | [3] 93 % of control | [4] 98 % of control | dose: 200.0 mg/kg/injection, schedule: Q04DX003 (ip), vehicle: saline with Tween-80 96 % of control | [5] 97 % of control | [6] 101 % of control | dose: 400.0 mg/kg/injection, schedule: Q04DX003 (ip), vehicle: saline with Tween-80 96 % of control

O=[N+]([O-])c1ccc2c([N+](=O)[O-])ccc3c2c1CC3
inactive: [2] 94 % of control | [4] 90 % of control | [6] 92 % of control

CC(=O)N(C)c1ccc(NC(=S)NC(=O)c2cccc([N+](=O)[O-])c2)cc1
inactive: dose: 25.0 mg/kg/injection, schedule: Q01DX009 (ip), vehicle: saline with Tween-80 97 % of control and 109 % of control | dose: 50.0 mg/kg/injection, schedule: Q01DX009 (ip), vehicle: saline with Tween-80 98 % of control and 108 % of control | [1] 97 % of control | dose: 100.0 mg/kg/injection, schedule: Q04DX002 (ip), vehicle: saline 93 % of control and 101 % of control | [3] 92 % of control | dose: 200.0 mg/kg/injection, schedule: Q04DX002 (ip), vehicle: saline 96 % of control and 97 % of control | [5] 92 % of control | [6] 93 % of control and 105 % of control | dose: 400.0 mg/kg/injection, schedule: Q04DX002 (ip), vehicle: saline 101 % of control and 104 % of control

O=[N+]([O-])C(Br)(c1ccccc1)S(=O)(=O)Cc1ccccc1 (stereo not given)
inactive: [7] 95 % of control | dose: 100.0 mg/kg/injection, schedule: Q04DX003 (ip), vehicle: Klucel (hydroxypropylcellulose) (HPC) 100 % of control | [8] 101 % of control | dose: 200.0 mg/kg/injection, schedule: Q04DX003 (ip), vehicle: Klucel (hydroxypropylcellulose) (HPC) 95 % of control | dose: 400.0 mg/kg/injection, schedule: Q04DX003 (ip), vehicle: Klucel (hydroxypropylcellulose) (HPC) 102 % of control

N/C(=N\O)c1c(Br)n(C2OC(CO)C(O)C2O)c2ncnc(N)c12 (stereo not given)
inactive: dose: 100.0 mg/kg/injection, schedule: Q01DX001 (ip), vehicle: saline 98 % of control | dose: 200.0 mg/kg/injection, schedule: Q01DX001 (ip), vehicle: saline 97 % of control | dose: 400.0 mg/kg/injection, schedule: Q01DX001 (ip), vehicle: saline 106 % of control

C/C=C/C=N/NC(=O)c1ccc(OC)cc1
inactive: [7] 102 % of control | [8] 86 % of control

COc1ccc(P(=S)(S)c2ccc(OC)cc2)cc1
inactive: dose: 100.0 mg/kg/injection, schedule: Q04DX003 (ip), vehicle: acetone 94 % of control | dose: 200.0 mg/kg/injection, schedule: Q04DX003 (ip), vehicle: acetone 100 % of control | dose: 400.0 mg/kg/injection, schedule: Q04DX003 (ip), vehicle: acetone 90 % of control

CCCCCCCCN(c1ccc(C(=O)O)cc1)S(=O)(=O)c1ccc(C)cc1
inactive: dose: 75.0 mg/kg/injection, schedule: Q01DX009 (ip), vehicle: Klucel (hydroxypropylcellulose) (HPC) 103 % of control | dose: 150.0 mg/kg/injection, schedule: Q01DX009 (ip), vehicle: Klucel (hydroxypropylcellulose) (HPC) 100 % of control | dose: 300.0 mg/kg/injection, schedule: Q01DX009 (ip), vehicle: Klucel (hydroxypropylcellulose) (HPC) 90 % of control
